This note sets out measurements from PubChem BioAssay AID256 (DTP/NCI, 2004).

Toxic doses and inconclusive results are not listed.

This assay deals with CD2F1 mice, L1210 leukemia ip, survival T/C. The assay is described as follows: NCI In Vivo Anticancer Drug Screen. Data for tumor model L1210 Leukemia (intraperitoneal) in CD2F1 (CDF1) mice. The note with it: higher = longer survival. The procedure, abridged: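 Each value reflects a quotient of treated over vehicle control outcomes in mice with a transplanted tumor.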
Setting [1] is: endpoint: mean survival time, dose: 100.0 mg/kg/injection, schedule: Q04DX003 (ip), vehicle: saline with Tween-80.
The mark [2] stands for this setting: endpoint: mean survival time, dose: 200.0 mg/kg/injection, schedule: Q04DX003 (ip), vehicle: saline with Tween-80.
[3] abbreviates: endpoint: mean survival time, dose: 400.0 mg/kg/injection, schedule: Q04DX003 (ip), vehicle: saline with Tween-80.
The mark [4] stands for this setting: endpoint: mean survival time, dose: 100.0 mg/kg/injection, schedule: Q01DX009 (ip), vehicle: saline with Tween-80.
Setting [5] is: endpoint: mean survival time, dose: 200.0 mg/kg/injection, schedule: Q01DX009 (ip), vehicle: saline with Tween-80.
The mark [6] stands for this setting: endpoint: mean survival time, dose: 400.0 mg/kg/injection, schedule: Q01DX009 (ip), vehicle: saline with Tween-80.
[7] abbreviates: endpoint: mean survival time, dose: 100.0 mg/kg/injection, schedule: Q04DX003 (ip), vehicle: saline.
Setting [8] is: endpoint: mean survival time, dose: 200.0 mg/kg/injection, schedule: Q04DX003 (ip), vehicle: saline.
Setting [9] is: endpoint: mean survival time, dose: 400.0 mg/kg/injection, schedule: Q04DX003 (ip), vehicle: saline.
[10] abbreviates: endpoint: mean survival time, dose: 50.0 mg/kg/injection, schedule: Q04DX003 (ip), vehicle: saline with Tween-80.
The mark [11] stands for this setting: endpoint: mean survival time, dose: 50.0 mg/kg/injection, schedule: Q04DX003 (ip), vehicle: saline.
[12] abbreviates: endpoint: mean survival time, dose: 25.0 mg/kg/injection, schedule: Q01DX009 (ip), vehicle: saline with Tween-80.
Where [13] appears, read: endpoint: mean survival time, dose: 50.0 mg/kg/injection, schedule: Q01DX009 (ip), vehicle: saline with Tween-80.

As for `NC(=S)N/N=C/c1ccc(OC(=O)COc2cc(Cl)c(Cl)cc2Cl)cn1`, the T/C was 122 % of control (endpoint: mean survival time, dose: 100.0 mg/kg/injection, schedule: Q04DX002 (ip), vehicle: saline with Tween-80); 114 % of control (endpoint: mean survival time, dose: 200.0 mg/kg/injection, schedule: Q04DX002 (ip), vehicle: saline with Tween-80); 122 % of control (endpoint: mean survival time, dose: 400.0 mg/kg/injection, schedule: Q04DX002 (ip), vehicle: saline with Tween-80).
As to `O=C(Nc1ccc(Cl)c(Cl)c1)Sc1ccc(Cl)cc1`, the T/C under setting [1] was 105 % of control.
Consider `Cc1ccc(/C=C2\CCOC2=O)cc1`, for which the T/C (endpoint: mean survival time, dose: 100.0 mg/kg/injection, schedule: Q04DX003 (ip), vehicle: Klucel (hydroxypropylcellulose) (HPC)) is 102 % of control; the T/C (endpoint: mean survival time, dose: 200.0 mg/kg/injection, schedule: Q04DX003 (ip), vehicle: Klucel (hydroxypropylcellulose) (HPC)) was 96 % of control; the T/C (endpoint: mean survival time, dose: 400.0 mg/kg/injection, schedule: Q04DX003 (ip), vehicle: Klucel (hydroxypropylcellulose) (HPC)) was 96 % of control.
For `Cc1cc(NC(=O)c2ccc(Cl)cc2)ccc1Cl`, the T/C by setting is: under setting [1], 97 % of control; under setting [2], 97 % of control; under setting [3], 106 % of control.
With `CC(=O)OC1CCC2C3CCC4=C(Cl)C(=O)CCC4C3CCC12C` (configuration not stated), the T/C (endpoint: mean survival time, dose: 100.0 mg/kg/injection, schedule: Q04DX003 (sc), vehicle: steriod suspending solution) was 98 % of control; the T/C (endpoint: mean survival time, dose: 200.0 mg/kg/injection, schedule: Q04DX003 (sc), vehicle: steriod suspending solution) was 97 % of control; the T/C (endpoint: mean survival time, dose: 400.0 mg/kg/injection, schedule: Q04DX003 (sc), vehicle: steriod suspending solution) was 106 % of control.
Turning to `COc1ccccc1NC(=O)Nc1ccc(C(=O)OCC(C)C)cc1`, the T/C was 89 % of control under setting [4]; 92 % of control under setting [1]; 88 % of control under setting [5]; 88 % of control under setting [2]; 86 % of control under setting [3].
With `Cc1ccc[n+](CC(O)c2ccc(C(O)C[n+]3cccc(C)c3)cc2)c1` (configuration not stated), the T/C was 101 % of control (endpoint: mean survival time, dose: 0.08 mg/kg/injection, schedule: Q04DX003 (ip), vehicle: saline) and 101 % of control (endpoint: mean survival time, dose: 0.15 mg/kg/injection, schedule: Q04DX003 (ip), vehicle: saline).
As to `CCCCOC(N)=O`, the T/C runs as follows: under setting [4], 100 % of control; under setting [5], 105 % of control; under setting [6], 97 % of control.
Take `CC(C)[Si]1(C(C)C)OCC2OC(c3cn(C)c(=O)n(C)c3=O)C(OC(=S)n3ccnc3)C2O[Si](C(C)C)(C(C)C)O1` (configuration not stated): the T/C (endpoint: median survival time, dose: 12.5 mg/kg/injection, schedule: Q01DX005 (ip), vehicle: distilled water + Tween-80) is 98 % of control; the T/C (endpoint: median survival time, dose: 25.0 mg/kg/injection, schedule: Q01DX005 (ip), vehicle: distilled water + Tween-80) was 98 % of control; the T/C (endpoint: median survival time, dose: 50.0 mg/kg/injection, schedule: Q01DX005 (ip), vehicle: distilled water + Tween-80) is 92 % of control; the T/C (endpoint: median survival time, dose: 100.0 mg/kg/injection, schedule: Q01DX005 (ip), vehicle: distilled water + Tween-80) was 92 % of control; the T/C (endpoint: median survival time, dose: 200.0 mg/kg/injection, schedule: Q01DX005 (ip), vehicle: distilled water + Tween-80) was 92 % of control.
With `Cc1ccc(OCC(=O)C2CSc3ccc(Cl)cc32)cc1` (configuration not stated), the T/C is, setting by setting: under setting [1], 97 % of control; under setting [2], 94 % of control; under setting [3], 111 % of control.
As for `CN(C=O)c1ccccc1C(=O)O`, the T/C was 98 % of control (endpoint: mean survival time, dose: 100.0 mg/kg/injection, schedule: Q01DX001 (ip), vehicle: saline with Tween-80); 96 % of control under setting [4]; 101 % of control (endpoint: mean survival time, dose: 200.0 mg/kg/injection, schedule: Q01DX001 (ip), vehicle: saline with Tween-80); 91 % of control under setting [5]; 98 % of control (endpoint: mean survival time, dose: 400.0 mg/kg/injection, schedule: Q01DX001 (ip), vehicle: saline with Tween-80); 97 % of control under setting [6].
In the case of `CSC(=N/N=C/c1ccccc1O)SC`, the T/C runs as follows: under setting [1], 98 % of control; under setting [2], 96 % of control; under setting [3], 96 % of control.
With `Nc1cc2c(nnn2C2OC(CO)C(O)C2O)c(=O)[nH]1` (configuration not stated), the T/C runs as follows: (endpoint: mean survival time, dose: 12.5 mg/kg/injection, schedule: Q01DX005 (ip), vehicle: distilled water + Tween-80) 98 % of control; (endpoint: mean survival time, dose: 25.0 mg/kg/injection, schedule: Q01DX005 (ip), vehicle: distilled water + Tween-80) 98 % of control; (endpoint: mean survival time, dose: 50.0 mg/kg/injection, schedule: Q01DX005 (ip), vehicle: distilled water + Tween-80) 102 % of control; (endpoint: mean survival time, dose: 100.0 mg/kg/injection, schedule: Q01DX005 (ip), vehicle: distilled water + Tween-80) 98 % of control; (endpoint: mean survival time, dose: 200.0 mg/kg/injection, schedule: Q01DX005 (ip), vehicle: distilled water + Tween-80) 88 % of control.
As for `c1ccc(CCc2nc3ccccc3o2)cc1`, the T/C runs as follows: under setting [1], 98 % of control; under setting [2], 102 % of control; under setting [3], 93 % of control.
In the case of `CC1(C)OC1C(=O)O` (configuration not stated), the T/C was 106 % of control under setting [7], 96 % of control under setting [8] and 98 % of control under setting [9].
Regarding `c1ccc2c(c1)CCCN2`, the T/C was 98 % of control (endpoint: mean survival time, dose: 31.5 mg/kg/injection, schedule: Q04DX003 (ip), vehicle: saline with Tween-80); 102 % of control under setting [10]; 98 % of control (endpoint: mean survival time, dose: 63.0 mg/kg/injection, schedule: Q04DX003 (ip), vehicle: saline with Tween-80); 102 % of control under setting [1]; 106 % of control (endpoint: mean survival time, dose: 125.0 mg/kg/injection, schedule: Q04DX003 (ip), vehicle: saline with Tween-80); 93 % of control under setting [2]. Also, the T/C under setting [3] is 86 % of control.
On to `Cc1c2ccncc2c(C)c2c1[nH]c1ccc(Br)cc12`, for which the T/C under setting [11] is 101 % of control, the T/C under setting [7] was 101 % of control, the T/C under setting [8] was 103 % of control and the T/C under setting [9] is 103 % of control.
Turning to `COc1ccc2c(c1O)C1=CC(=O)CCC13CCN(C)C3C2` (configuration not stated), the T/C is, setting by setting: (endpoint: mean survival time, dose: 100.0 mg/kg/injection, schedule: Q01DX009 (ip), vehicle: saline) 103 % of control; (endpoint: mean survival time, dose: 200.0 mg/kg/injection, schedule: Q01DX009 (ip), vehicle: saline) 96 % of control.
In the case of `C[n+]1ccccc1CCC(=O)Nc1ccccc1`, the T/C under setting [12] is 103 % of control, the T/C under setting [13] was 95 % of control and the T/C under setting [4] was 88 % of control.
With `O=P(N1CCOCC1)(N1CC1)N1CC1`, the T/C was 103 % of control (endpoint: mean survival time, dose: 1.56 mg/kg/injection, schedule: Q01DX009 (ip), vehicle: saline); 111 % of control (endpoint: mean survival time, dose: 3.12 mg/kg/injection, schedule: Q01DX009 (ip), vehicle: saline); 180 % of control (endpoint: mean survival time, dose: 12.5 mg/kg/injection, schedule: Q01DX009 (ip), vehicle: saline).
As to `CCCCCCCCCCCCCCCCCC[Se][Se]CCCCCCCCCCCCCCCCCC`, the T/C (endpoint: mean survival time, dose: 25.0 mg/kg/injection, schedule: Q04DX003 (ip), vehicle: saline with Tween-80) was 93 % of control; the T/C under setting [10] was 95 % of control; the T/C under setting [1] was 95 % of control.
For the compound `CCCCCCCCCCCCCCCC(=O)N(CCCCN(CCCN(C)C)C(=O)CCCCCCCCCCCCCCC)CCCN(C)C`, the T/C reads like this: under setting [12], 93 % of control; under setting [13], 91 % of control.
Take `CCN(C(=O)Nc1ccccc1Cl)c1ccccc1`: the T/C by setting is: (endpoint: mean survival time, dose: 75.0 mg/kg/injection, schedule: Q04DX003 (ip), vehicle: saline with Tween-80) 102 % of control; (endpoint: mean survival time, dose: 150.0 mg/kg/injection, schedule: Q04DX003 (ip), vehicle: saline with Tween-80) 101 % of control; (endpoint: mean survival time, dose: 300.0 mg/kg/injection, schedule: Q04DX003 (ip), vehicle: saline with Tween-80) 98 % of control.
Turning to `CC(=O)CC(=O)Nc1ccc(N=Nc2ccccc2)cc1`, the T/C by setting is: under setting [4], 101 % of control; under setting [5], 101 % of control.
With `CC(=O)C(Cl)C(C)=O.CC(=O)C(Cl)C(C)=O.CO.CO.[Ni]`, the T/C under setting [11] was 108 % of control.
Turning to `CC(C)OC(=O)Nc1cc(F)c(F)cc1F`, the T/C reads like this: under setting [4], 103 % of control; under setting [5], 103 % of control; under setting [6], 103 % of control.
With `O=C(C(=O)c1ccc(Cl)cc1)c1ccc(Cl)cc1`, the T/C (endpoint: mean survival time, dose: 6.25 mg/kg/injection, schedule: Q04DX003 (ip), vehicle: other) was 94 % of control; the T/C (endpoint: mean survival time, dose: 12.5 mg/kg/injection, schedule: Q04DX003 (ip), vehicle: other) was 90 % of control; the T/C (endpoint: mean survival time, dose: 25.0 mg/kg/injection, schedule: Q04DX003 (ip), vehicle: other) was 90 % of control.
